Results taken from paper PMC12282092, “Discovery of a non-nucleoside inhibitor that binds to a novel site in the palm domain of the respiratory syncytial virus RNA-dependent RNA polymerase” (Journal of Virology, 2025).

Legend:
[1] = HeLa cytotoxicity assay (ATPlite); details: human; for CC50 at 72 h: HeLa cells
Procedure: (§1) Compound serial dilutions (9 point, fourfold) were prepared in DMSO, and 200 nL was transferred to black, 384-well, clear-bottom microtiter plates (Corning, Amsterdam, The Netherlands) via acoustic drop ejection ([36], [50]). […] Then, 20 µL of a HeLa cell suspension (3,000 cells/well) was added with a Multidrop Combi, and cells were incubated at 37°C in a 5% CO2 atmosphere. After 72 h, GFP expression was quantified using an EnVision Multimode Plate Reader (Perkin Elmer, Zaventem, Belgium), and data were normalized to untreated and media-only (no virus) controls. Cytotoxicity was determined in parallel using the ATPlite kit (Perkin Elmer, Zaventem, Belgium). Luminescence was measured in white, 384-well microtiter plates (Corning) on a ViewLux uHTS Microplate Imager apparatus (PerkinElmer, Zaventem, Belgium), and cellular ATP content was quantified by normalizing to untreated and media-only (no cell) controls. […] Figures were prepared with GraphPad Prism.

HeLa cells = experiment: HeLa cytotoxicity assay (ATPlite); details: HeLa cells
Procedure: as §1

RSV L+P = molecular target: T1, RSV L+P (Human respiratory syncytial virus A, UniProt P28887); experiment: Pyrophosphate luminescence detection assay, full-length RSV L+P; format: biochemical; details: pyrophosphate luminescence detection assay; for IC50: read-out: Biochemical IC50; for Emax: read-out: Biochemical Emax
T1 construct: Biochemical activity of 1 and 22 against full-length RSV L+P; Twin-Strep-tag (N); made in house; host or cells: Sf9 insect cells (baculovirus, pFastBac Dual)
Procedure: Working solutions (3×) of RSV L+P (60 nM), substrate (30 µM each of GTP, CTP, UTP, 300 µM ATPαS [Jena Bioscience], 15 µM RNA template TrC-25), detection reagents (6 nM Luciferase, 900 µM luciferin, 3 U/µL ATP Sulfurylase [BioVision], 15 µM adenosine phosphosulfate [APS], 3 mM coenzyme A), were prepared in complete assay buffer. Compounds were dissolved in dimethyl sulfoxide (DMSO) and dispensed to white, 1536-well cyclic olefin copolymer (COC) plates (Corning, 9145BC) using an Echo Acoustic Liquid Handler (Beckman Coulter, San Jose, CA). Substrate (1 µL) and detection reagents (1 µL) were dispensed using a Multidrop Combi Dispenser (ThermoFisher, Waltham, MA), followed by enzyme (1 µL) to initiate the reaction. Final screening concentrations were 20 nM RSV L+P, 10 µM GTP/CTP/UTP, 100 µM ATPαS, 5 µM TrC-25, 2 nM Luciferase (Promega), 300 µM luciferin (Promega), 1 U/µL ATP sulfurylase, 5 µM APS, and 1 mM CoA. […] Luminescence was detected using the PHERAStar FSX (BMG Labtech, Ortenberg, Germany).

[2] = test system: rgRSV224 virus (RSV A2) in HeLa cells; experiment: HeLa cell rgRSV224 eGFP reporter viral proliferation assay; format: cell-based; details: human respiratory syncytial virus, RSV eGFP phenotypic assay in HeLa cells; for EC50: HeLa, 72 h, MOI 1, 72 h, n ≥ 2, read-out: Cellular EC50; for Emax: read-out: Cellular Emax
Procedure: as §1

[3] = Metabolic stability in liver microsomes; details: in vitro intrinsic clearance in human liver microsomes, n = 1

T1 sequence (P03421 whole entry): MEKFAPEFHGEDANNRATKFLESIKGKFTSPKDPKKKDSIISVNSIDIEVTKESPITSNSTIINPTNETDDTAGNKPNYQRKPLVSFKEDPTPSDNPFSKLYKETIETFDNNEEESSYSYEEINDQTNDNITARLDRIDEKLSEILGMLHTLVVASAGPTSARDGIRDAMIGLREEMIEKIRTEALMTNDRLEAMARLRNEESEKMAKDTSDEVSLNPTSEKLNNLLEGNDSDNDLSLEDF
T1 sequence (P28887 whole entry): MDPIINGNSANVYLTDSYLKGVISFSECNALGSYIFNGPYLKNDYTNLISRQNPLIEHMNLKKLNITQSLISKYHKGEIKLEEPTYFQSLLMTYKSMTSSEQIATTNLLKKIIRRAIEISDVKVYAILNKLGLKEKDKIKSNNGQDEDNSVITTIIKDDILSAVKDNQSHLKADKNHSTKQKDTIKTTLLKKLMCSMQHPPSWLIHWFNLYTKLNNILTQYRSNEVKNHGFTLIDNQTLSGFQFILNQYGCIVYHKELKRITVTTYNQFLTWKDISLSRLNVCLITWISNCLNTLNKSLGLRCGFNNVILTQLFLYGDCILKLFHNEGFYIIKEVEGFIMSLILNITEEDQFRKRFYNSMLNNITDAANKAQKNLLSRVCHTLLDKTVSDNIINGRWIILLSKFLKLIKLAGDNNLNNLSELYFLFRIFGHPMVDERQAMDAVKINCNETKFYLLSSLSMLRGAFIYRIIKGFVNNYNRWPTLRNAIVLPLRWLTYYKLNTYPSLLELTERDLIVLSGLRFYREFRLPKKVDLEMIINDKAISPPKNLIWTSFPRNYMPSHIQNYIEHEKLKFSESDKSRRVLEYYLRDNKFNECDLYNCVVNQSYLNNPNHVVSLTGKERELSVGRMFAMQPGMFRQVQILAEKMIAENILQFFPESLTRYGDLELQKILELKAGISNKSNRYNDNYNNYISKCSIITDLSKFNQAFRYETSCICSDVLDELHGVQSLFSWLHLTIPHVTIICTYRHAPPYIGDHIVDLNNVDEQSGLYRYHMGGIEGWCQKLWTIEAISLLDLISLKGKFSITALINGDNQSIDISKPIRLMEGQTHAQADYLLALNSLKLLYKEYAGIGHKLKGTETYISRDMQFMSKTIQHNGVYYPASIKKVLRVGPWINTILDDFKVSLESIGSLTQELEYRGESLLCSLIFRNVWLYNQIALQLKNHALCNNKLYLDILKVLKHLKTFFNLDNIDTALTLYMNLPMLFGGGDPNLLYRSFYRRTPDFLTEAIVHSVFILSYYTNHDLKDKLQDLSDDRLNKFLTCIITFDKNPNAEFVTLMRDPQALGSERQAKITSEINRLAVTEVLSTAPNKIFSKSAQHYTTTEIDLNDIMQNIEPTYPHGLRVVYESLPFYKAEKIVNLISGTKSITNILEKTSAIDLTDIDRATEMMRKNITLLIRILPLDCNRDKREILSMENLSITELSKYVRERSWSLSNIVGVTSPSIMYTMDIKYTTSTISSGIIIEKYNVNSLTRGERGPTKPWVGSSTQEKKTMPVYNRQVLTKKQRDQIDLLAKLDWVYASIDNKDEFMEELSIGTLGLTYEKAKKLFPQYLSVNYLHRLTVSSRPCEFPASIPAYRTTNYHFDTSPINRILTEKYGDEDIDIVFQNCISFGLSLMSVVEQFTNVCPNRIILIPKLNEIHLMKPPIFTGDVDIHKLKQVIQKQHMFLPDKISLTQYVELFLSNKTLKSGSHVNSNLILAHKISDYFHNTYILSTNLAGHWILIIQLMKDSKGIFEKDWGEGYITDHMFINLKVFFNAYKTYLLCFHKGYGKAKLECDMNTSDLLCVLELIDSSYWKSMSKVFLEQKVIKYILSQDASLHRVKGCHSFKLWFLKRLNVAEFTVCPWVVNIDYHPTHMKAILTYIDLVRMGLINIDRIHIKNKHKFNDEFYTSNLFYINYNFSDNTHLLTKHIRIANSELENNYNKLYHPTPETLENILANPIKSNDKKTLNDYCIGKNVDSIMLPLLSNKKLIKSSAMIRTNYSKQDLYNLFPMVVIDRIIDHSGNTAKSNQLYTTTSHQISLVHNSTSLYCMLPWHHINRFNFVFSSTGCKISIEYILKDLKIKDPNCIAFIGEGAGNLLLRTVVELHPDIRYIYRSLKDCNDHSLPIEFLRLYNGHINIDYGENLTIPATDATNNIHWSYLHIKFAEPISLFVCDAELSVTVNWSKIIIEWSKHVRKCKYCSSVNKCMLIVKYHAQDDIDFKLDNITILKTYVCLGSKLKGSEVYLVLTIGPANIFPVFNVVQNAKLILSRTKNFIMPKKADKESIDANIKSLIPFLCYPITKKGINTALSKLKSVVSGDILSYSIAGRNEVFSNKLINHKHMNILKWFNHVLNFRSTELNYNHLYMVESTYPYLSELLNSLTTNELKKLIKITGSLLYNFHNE

SMILES	CC50 at 72 h [1] [µM]	Cytotoxicity Emax (HeLa cells) [%]	IC50 (RSV L+P; full-length RSV L+P, n ≥ 2) [µM]	Emax (RSV L+P) [%]	EC50 [2] [µM]	Emax [2] [%]	CC50 [1] [µM]	HLM CLint [3]	Biochemical IC50 (RSV L+P; full-length RSV L+P, n ≥ 2)
COc1ccc2c(c1)C1(CCN(c3cnc(C#N)c(Cl)c3)CC1)C(=O)N2 [Compound 18, 3-chloro-5-(5-methoxy-2-oxospiro[indoline-3,4'-piperidin]-1'-yl)picolinonitrile]	24.4	82.4	3.1	100	15.9	96.8	–	–	–
CN1C(=O)C2(CCN(c3ccc(C#N)c(Cl)c3)CC2)c2cc(F)ccc21 [Compound 30]	–	58.0	1.25	100	4.35	95.8	> 6.65	39.1 µL/min/mg microsomal protein	–
N#Cc1ncc(N2CCC3(CC2)C(=O)N(CCF)c2ccc(F)cc23)cc1Cl [Compound 25, 3-chloro-5-(5-fluoro-1-(2-fluoroethyl)-2-oxospiro[indoline-3,4'-piperidin]-1'-yl)picolinonitrile]	> 23.4	66.5	2.86	90.7	8.86	80.3	–	14.1 µL/min/mg microsomal protein	–
Cc1cc(N2CCC3(CC2)C(=O)N(C)c2ccc(F)cc23)cc(F)c1C#N [Compound 32, 2-fluoro-4-(5-fluoro-1-methyl-2-oxospiro[indoline-3,4'-piperidin]-1'-yl)-6-methylbenzonitrile]	> 5.78	50.9	1.9	91.2	13.8	92.6	–	64.8 µL/min/mg microsomal protein	–
N#Cc1ncc(N2CCC3(CC2)C(=O)N(CC2CC2)c2ccc(F)cc23)cc1Cl [Compound 24, 3-chloro-5-(1-(cyclopropylmethyl)-5-fluoro-2-oxospiro[indoline-3,4'-piperidin]-1'-yl)picolinonitrile]	> 7.77	51.8	–	89.4	8.61	78.3	–	46.3 µL/min/mg microsomal protein	–
CN1C(=O)C2(CCN(c3ccc(C#N)c(Cl)n3)CC2)c2cc(F)ccc21 [Compound 29, 2-chloro-6-(5-fluoro-1-methyl-2-oxospiro[indoline-3,4'-piperidin]-1'-yl)nicotinonitrile]	> 8.43	66.9	1.56	95.5	7.89	94.3	–	31.9 µL/min/mg microsomal protein	–
CN1C(=O)C2(CCN(c3cnc(N4CCOCC4)c(Cl)c3)CC2)c2cc(F)ccc21 [Compound 34, 1'-(5-chloro-6-morpholinopyridin-3-yl)-5-fluoro-1-methylspiro[indoline-3,4'-piperidin]-2-one]	> 50	41.6	> 30.2	69.5	30.3	49.6	–	126 µL/min/mg microsomal protein	inactive
N#Cc1ncc(N2CCC3(CC2)C(=O)N(c2cccnc2)c2ccc(F)cc23)cc1Cl [Compound 21, 3-chloro-5-(5-fluoro-2-oxo-1-(pyridin-3-yl)spiro[indoline-3,4'-piperidin]-1'-yl)picolinonitrile]	> 2.71	44.8	0.8	107	3.38	95.8	–	–	–
COc1cc(N2CCC3(CC2)C(=O)N(C)c2ccc(F)cc23)cnc1C#N [Compound 31, 5-(5-fluoro-1-methyl-2-oxospiro[indoline-3,4'-piperidin]-1'-yl)-3-methoxypicolinonitrile]	> 22.7	37.6	2.98	115	8.78	98.6	–	20.5 µL/min/mg microsomal protein	–
